Data published in article PMC7338687, “Allosteric Coupling Between Drug Binding and the Aromatic Cassette in the Pore Domain of the hERG1 Channel: Implications for a State-Dependent Blockade” (Frontiers in Pharmacology, 2020).
Like-named read-outs stand apart in the source and are kept apart here.

Key:
guinea pig myocytes = tested on: guinea pig myocytes; design: method as in Duff et al., 1995; settings: ref Duff et al., 1995, cited from earlier work
M651T hERG1 = tested on: M651T hERG1; design: method as in Perissinotti et al., 2019; settings: ref Perissinotti et al., 2019; cited from earlier work
F656C hERG1 = F656C hERG1 (Homo sapiens, UniProt Q12809, F656C); assay: whole-cell patch-clamp of hERG1 tail currents, F656C mutant
Chain of F656C hERG1 (Q12809 whole entry F656C): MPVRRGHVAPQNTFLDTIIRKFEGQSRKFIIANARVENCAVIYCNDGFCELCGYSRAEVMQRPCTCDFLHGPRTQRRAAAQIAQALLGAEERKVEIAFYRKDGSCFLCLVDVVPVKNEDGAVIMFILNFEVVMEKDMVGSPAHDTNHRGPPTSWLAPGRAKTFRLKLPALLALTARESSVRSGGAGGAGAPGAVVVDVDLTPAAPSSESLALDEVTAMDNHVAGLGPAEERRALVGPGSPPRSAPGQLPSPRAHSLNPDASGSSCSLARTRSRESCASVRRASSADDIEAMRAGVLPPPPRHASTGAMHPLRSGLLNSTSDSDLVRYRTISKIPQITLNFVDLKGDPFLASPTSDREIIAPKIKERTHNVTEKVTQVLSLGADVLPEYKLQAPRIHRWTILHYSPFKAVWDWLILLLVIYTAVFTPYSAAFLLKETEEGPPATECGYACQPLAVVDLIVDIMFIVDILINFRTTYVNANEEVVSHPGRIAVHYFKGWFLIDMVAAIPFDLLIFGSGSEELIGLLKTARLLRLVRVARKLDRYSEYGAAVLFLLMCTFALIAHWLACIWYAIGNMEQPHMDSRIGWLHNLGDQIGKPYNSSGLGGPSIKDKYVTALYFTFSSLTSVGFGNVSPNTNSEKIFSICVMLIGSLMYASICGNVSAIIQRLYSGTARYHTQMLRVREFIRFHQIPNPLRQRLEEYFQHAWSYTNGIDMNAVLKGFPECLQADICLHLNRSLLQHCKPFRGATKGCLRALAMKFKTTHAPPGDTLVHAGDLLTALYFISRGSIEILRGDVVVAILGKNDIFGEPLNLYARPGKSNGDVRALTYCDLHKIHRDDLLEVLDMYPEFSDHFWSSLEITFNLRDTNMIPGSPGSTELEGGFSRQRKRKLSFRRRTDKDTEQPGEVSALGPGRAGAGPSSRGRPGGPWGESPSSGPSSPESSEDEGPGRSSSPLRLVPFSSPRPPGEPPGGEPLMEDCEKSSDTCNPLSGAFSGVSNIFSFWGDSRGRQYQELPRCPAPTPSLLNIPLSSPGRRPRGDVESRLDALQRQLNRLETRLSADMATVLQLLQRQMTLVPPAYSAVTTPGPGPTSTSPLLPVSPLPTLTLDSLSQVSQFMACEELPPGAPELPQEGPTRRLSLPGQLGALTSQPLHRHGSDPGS
Excerpt: (§1) The site-directed mutagenesis methods utilized in this work have been previously reported ([Lees-Miller et al., 2015]; [Wang et al., 2016]). The hERG1 constructs were transfected into mammalian HEK cells. Conventional overlap PCR with primers were synthesized by Sigma Genosys (Oakville, Ontario, Canada) and sequenced by using Eurofins MWG Operon (Huntsville, AL) to create the single- and double-point mutant constructs of hERG1. Following this, XbaI restriction endonuclease was used to linearize and the cRNA was transcribed in vitro using the mMessage mMachine T7 Ultra cRNA transcription kit (Ambion, Austin, TX).
(§2) All experiments were performed under room temperature (295 K). The extracellular solution contained (mM) NaCl 140, KCl 5.4, CaCl2 1, MgCl2 1, HEPES 5, glucose 5.5; the pH of the solution was adjusted and kept at 7.4 with NaOH solution. Micropipettes were pulled from borosilicate glass capillary tubes using a programmable horizontal puller (Sutter Instruments, Novato, CA). […] Tail currents were recorded when the voltage was returned to −100 mV from +50 mV. […] The changes of hERG1 currents during the intracellular dialysis of the drug were monitored each minute right after forming the whole cell configuration. […]

F557L/F656C hERG1 = target: T1, F557L/F656C hERG1 (Homo sapiens, UniProt Q12809, F557L/F656C); assay: whole-cell patch-clamp of hERG1 tail currents, double mutation F557L/F656C; assay type: cell-based
T1 construct: expressed in transfected cells; host or cells: HEK 293
T1 sequence (Q12809 whole entry F557L/F656C): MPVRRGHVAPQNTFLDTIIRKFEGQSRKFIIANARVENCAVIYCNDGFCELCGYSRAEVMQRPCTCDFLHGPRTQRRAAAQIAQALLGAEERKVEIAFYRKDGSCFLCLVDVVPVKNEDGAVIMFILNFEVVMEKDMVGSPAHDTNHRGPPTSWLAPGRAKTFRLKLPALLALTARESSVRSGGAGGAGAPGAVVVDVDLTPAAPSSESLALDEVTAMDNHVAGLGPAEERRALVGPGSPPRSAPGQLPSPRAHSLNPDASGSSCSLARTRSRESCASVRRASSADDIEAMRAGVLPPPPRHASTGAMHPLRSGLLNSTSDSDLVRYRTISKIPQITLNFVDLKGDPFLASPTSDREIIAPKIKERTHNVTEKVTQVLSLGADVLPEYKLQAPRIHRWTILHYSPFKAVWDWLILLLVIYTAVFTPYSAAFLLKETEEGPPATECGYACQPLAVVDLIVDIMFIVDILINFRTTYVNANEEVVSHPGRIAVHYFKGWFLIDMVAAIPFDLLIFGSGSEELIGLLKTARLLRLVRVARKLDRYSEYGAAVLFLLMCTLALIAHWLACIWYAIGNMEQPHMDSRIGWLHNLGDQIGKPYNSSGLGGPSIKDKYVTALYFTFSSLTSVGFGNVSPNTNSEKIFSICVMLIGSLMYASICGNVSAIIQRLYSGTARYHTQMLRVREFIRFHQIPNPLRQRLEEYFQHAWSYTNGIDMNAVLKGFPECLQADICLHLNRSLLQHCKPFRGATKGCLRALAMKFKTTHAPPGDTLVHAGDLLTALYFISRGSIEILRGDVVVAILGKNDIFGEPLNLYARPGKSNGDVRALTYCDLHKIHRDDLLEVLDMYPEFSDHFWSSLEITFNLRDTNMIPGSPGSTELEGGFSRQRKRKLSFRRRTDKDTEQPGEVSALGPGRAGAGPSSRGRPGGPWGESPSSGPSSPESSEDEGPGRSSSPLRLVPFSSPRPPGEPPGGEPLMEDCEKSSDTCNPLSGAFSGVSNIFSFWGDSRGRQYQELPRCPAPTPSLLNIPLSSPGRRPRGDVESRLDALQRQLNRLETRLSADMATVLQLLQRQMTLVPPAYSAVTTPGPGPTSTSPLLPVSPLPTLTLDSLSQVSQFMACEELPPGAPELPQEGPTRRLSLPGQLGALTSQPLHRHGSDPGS
Excerpt: as §1, §2

hERG1 = target: T2, hERG1 (Homo sapiens, UniProt Q12809); assay: intracellular application of drug via the patch pipette, hERG1 current; assay type: cell-based; settings: 100 µM (15-fold greater than extracellular IC50)
T2 construct: expressed in transfected cells; host or cells: HEK 293
T2 sequence (Q12809 whole entry): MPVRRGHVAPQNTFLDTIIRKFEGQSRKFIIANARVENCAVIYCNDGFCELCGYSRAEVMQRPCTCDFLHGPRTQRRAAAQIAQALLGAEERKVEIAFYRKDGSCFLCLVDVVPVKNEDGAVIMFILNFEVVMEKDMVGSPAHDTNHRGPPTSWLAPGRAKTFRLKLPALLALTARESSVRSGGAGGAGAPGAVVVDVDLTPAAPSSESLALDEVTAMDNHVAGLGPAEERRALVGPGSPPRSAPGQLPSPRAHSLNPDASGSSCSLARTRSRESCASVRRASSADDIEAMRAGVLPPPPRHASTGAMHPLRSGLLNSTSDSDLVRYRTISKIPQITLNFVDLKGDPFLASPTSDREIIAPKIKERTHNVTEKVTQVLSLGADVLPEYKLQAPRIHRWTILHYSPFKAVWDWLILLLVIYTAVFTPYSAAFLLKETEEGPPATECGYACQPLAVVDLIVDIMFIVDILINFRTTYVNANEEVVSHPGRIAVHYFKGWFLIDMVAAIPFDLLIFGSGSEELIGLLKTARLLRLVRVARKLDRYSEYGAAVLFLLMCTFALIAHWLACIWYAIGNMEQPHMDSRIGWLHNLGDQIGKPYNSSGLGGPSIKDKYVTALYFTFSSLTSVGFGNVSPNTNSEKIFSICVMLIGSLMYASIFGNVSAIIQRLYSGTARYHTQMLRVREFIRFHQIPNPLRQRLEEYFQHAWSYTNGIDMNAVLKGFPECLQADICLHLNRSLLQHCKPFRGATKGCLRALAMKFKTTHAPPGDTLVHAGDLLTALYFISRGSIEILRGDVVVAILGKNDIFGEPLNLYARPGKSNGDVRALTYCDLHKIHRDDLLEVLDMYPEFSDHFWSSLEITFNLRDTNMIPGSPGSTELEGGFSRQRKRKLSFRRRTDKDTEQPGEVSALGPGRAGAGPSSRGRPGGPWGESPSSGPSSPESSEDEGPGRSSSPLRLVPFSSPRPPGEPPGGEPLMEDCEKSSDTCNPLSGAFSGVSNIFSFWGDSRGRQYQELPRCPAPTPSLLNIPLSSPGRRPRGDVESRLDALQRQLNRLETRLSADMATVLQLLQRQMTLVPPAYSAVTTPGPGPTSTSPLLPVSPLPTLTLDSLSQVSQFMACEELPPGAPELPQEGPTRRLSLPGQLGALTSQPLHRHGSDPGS
Description: All experiments were performed under room temperature (295 K). The extracellular solution contained (mM) NaCl 140, KCl 5.4, CaCl2 1, MgCl2 1, HEPES 5, glucose 5.5; the pH of the solution was adjusted and kept at 7.4 with NaOH solution. Micropipettes were pulled from borosilicate glass capillary tubes using a programmable horizontal puller (Sutter Instruments, Novato, CA). The “intracellular” pipette solution contained the following: 10 mM KCl, 110 mM K-aspartate, 5 mM MgCl2, 5 mM Na2ATP, 10 mM EGTA [ethylene glycol-bis(-aminoethyl ether)-N,N,N,N tetraacetic acid], 5 mM HEPES, and 1mM CaCl2. The internal solution was then adjusted to pH 7.2 with KOH solution. Transfected HEK cells were patched to record the hERG1 currents. Standard patch-clamp methods were used to measure the whole cell currents of hERG1 mutants expressed in HEK 293 cells using the AXOPATCH 200B amplifier (Axon Instruments). Tail currents were recorded when the voltage was returned to −100 mV from +50 mV. Ivabradine was dissolved in Tyrode solution immediately before the experiments and the solutions were used for the next 2 h during the experiments. […] The changes of hERG1 currents during the intracellular dialysis of the drug were monitored each minute right after forming the whole cell configuration.

WT hERG1 = WT hERG1 (Homo sapiens, UniProt Q12809); assay: cell-based; settings: HEK 293 cells
Chain of WT hERG1 (Q12809 whole entry): as above
Excerpt: as §1, §2

| Structure (SMILES) | IC50 (guinea pig myocytes; read-out: high affinity for binding of dofetilide, high-affinity site) [µM] | IC50 (guinea pig myocytes; read-out: low affinity for binding of dofetilide (low affinity IC50 value), low-affinity site) [µM] | sensitivity of block to the M651T mutation (M651T hERG1) | IC50 (F656C hERG1) [µM] | block in raw current traces (F557L/F656C hERG1; F557L/F656C, 100 µM Ivabradine vs control) | blocking (F557L/F656C hERG1; double mutant F557L/F656C, suprapharmacologic concentrations (dofetilide 20 µM, ivabradine 100 µM)) | block of hERG1 current when applied intracellularly (hERG1) | IC50 (WT hERG1; IC50 for block (Hill fit), WT, Figure 7A) [µM] | IC50 (WT hERG1; IC50 for block of hERG1, WT, applied extracellularly, tail currents, room temperature) [µM] |
| --- | --- | --- | --- | --- | --- | --- | --- | --- | --- |
| CN(CCOc1ccc(NS(C)(=O)=O)cc1)CCc1ccc(NS(C)(=O)=O)cc1 [dofetilide] | 0.1 | 1 | insensitive | – | – | – | – | – | – |
| COc1cc2c(cc1OC)CC(=O)N(CCCN(C)C[C@H]1Cc3cc(OC)c(OC)cc31)CC2 [ivabradine] | – | – | – | 45 | no block | ~ 15% | little block | 6.8 | 6.7 |
